The source of these data is patent US10011572B2, “Monocyclic isoxazolines as inhibitors of cholesterol ester transfer protein” (Merck Sharp & Dohme Corp., priority 2014, dated 2018).

By IC50 is commonly meant the concentration that inhibits the measured activity by half.

A value given as a limit tells only on which side of the number the result lay.

The first test addresses T1, endogenous CETP from serum (Homo sapiens, UniProt P11597).
T1 construct: yielding a concentration of approximately 15 nM endogenous CETP in the assay; from tissue; host or cells: human serum
T1 sequence (P11597 18-493): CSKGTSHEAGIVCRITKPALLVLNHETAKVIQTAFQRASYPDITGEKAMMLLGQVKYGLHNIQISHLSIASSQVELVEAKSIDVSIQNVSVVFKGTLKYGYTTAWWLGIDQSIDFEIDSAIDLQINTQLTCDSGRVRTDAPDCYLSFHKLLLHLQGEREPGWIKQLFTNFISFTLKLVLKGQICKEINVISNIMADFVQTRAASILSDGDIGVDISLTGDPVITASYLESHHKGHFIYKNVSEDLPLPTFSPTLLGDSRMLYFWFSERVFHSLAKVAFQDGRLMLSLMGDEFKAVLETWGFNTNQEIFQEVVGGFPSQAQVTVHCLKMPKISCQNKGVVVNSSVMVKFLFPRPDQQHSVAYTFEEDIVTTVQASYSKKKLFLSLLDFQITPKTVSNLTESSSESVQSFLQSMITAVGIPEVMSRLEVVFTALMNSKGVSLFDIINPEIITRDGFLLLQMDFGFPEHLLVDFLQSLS
The test can be described thus: RTA assay in 95% human serum (in vitro radioactive assay of CETP-catalyzed CE and TG transfer, endogenous CETP). Format: biochemical. The settings on record: read-out: IC50 (nM) RTA with 95% HS. On the procedure:
In Vitro Radioactive Assays of CETP-Catalyzed CE and TG Transfer (RTA Assay)
Reagents and sources are: [3H] cholesteryl oleate (GE #TRK.886), [3H] Triolein (Perkin-Elmer NET-431), Butylated hydroxyl toluene (Aldrich, #D4740-4), DOPC (Sigma, # P6354), Sodium Bromide (Fisher scientific #S255-500), PEG 8000 (Fisher, #BP233-1), and human HDL (Intracel Corp #RP-036).
An in vitro assay for determining IC50's to identify compounds that inhibit CETP transfer activity is performed based on a modification of a published method (Morton and Zilversmit, (1981) A plasma inhibitor of triglyceride and cholesteryl ester transfer activities, J. Biol. Chem. 256(23), 11992-11995). The ability of inhibitors to alter CETP activity is performed using two different assays: one using recombinant CETP and one using an endogenous plasma source of CETP. Both assays measure the transfer of [3H] cholesteryl oleate or [3H] triolein from exogenous LDL to HDL.
Radiolabeled donor particles are generated by first combining 100 μl of 200 μM butylated hydroxyl toluene in CHCl3, 216 μL of 21.57 mM DOPC in EtOH, and either 500 μCi [3H]-triolein (Perkin Elmer #NET-431) or 500 μCi [3H]-cholesteryl oleate (GE #TRK886) in a glass tube. Reagents are mixed, dried under nitrogen, and then resuspended in 2 mL of 50 mM Tris, 27 μM EDTA at pH 7.4. After a brief vortex, the solution is sonicated until clear and mixed with 20 mL of fresh human serum. The mixture is incubated overnight at 37° C. The [3H] labeled LDL substrate is separated at 1.063 g/ml density by sequential ultracentrifugal flotation in NaBr according to the method of Havel, Eder, et al., 1955, and Chapman, Goldstein, et al., 1981. Once isolated the particles are dialyzed 3× in CETP buffer (50 mM Tris, pH 7.4, 100 mM NaCl, 1 mM EDTA). Human HDL is purchased from Intracel and used as the acceptor particles.
Transfer assays are performed in a 96-well v-bottom polypropylene plate. For the RTA using recombinant CETP (2% RTA), an assay cocktail is prepared with the final concentrations 128 μg/mL HDL, 20 nM rCETP, 2% human serum, and 1×CETP buffer. 1 μL of each test compound diluted in DMSO is added to 47 μL of assay cocktail per well and incubated at 37° C. for 1 hour. To initiate the transfer reaction, 2 μL radiolabeled LDL is added. After an additional 60 min of incubation at 37° C., the transfer action is terminated by precipitation of LDL with an equal volume of 20% WN PEG 8000. The plates are centrifuged at 2000 rpm for 30 minutes at 4° C. A 40 μL aliquot of the HDL-containing supernatant is transferred to a Packard Optiplate™ with 200 μL of MicroScint™ 20. After mixing, plates are counted by liquid scintillation. Counts present in the supernatant for blanks (wells containing only HDL acceptor, CETP buffer and DMSO) are subtracted from those containing test compounds and used to correct for non-specific transfer.
For the transfer assay using endogenous CETP from serum (95% RTA), the same procedure is used except that human serum is added such that a final concentration of serum of 95% of the total assay volume is achieved, yielding a concentration of approximately 15 nM endogenous CETP in the assay. This is then combined with HDL and CETP buffer and the reaction proceeds as above and is terminated as described.
Comparison of the counts of samples with inhibitors to an uninhibited (DMSO only) positive control yield a percent inhibition. A plot of percent inhibition vs. log of inhibitor concentration, fit to a Sigmoidal 4 parameter equation is used to calculate IC50.
Starting materials are commercially available or are made using known procedures or as shown below. The examples may be synthesized according to the general schemes provided below and by using the synthetic intermediates that are described. The data reported for the examples below were obtained using the RTA assay in 95% human serum.
As for `COc1cc(F)c(C(C)C)cc1-c1ccc(C(F)(F)F)cc1CC1=NO[C@H](c2cc(C(F)(F)F)cc(C(F)(F)F)c2)C1` [Example 4, (5S)-5-[3,5-bis(trifluoromethyl)phenyl]-3-{[4′-fluoro-2′-methoxy-5′-(1-methylethyl)-4-(trifluoromethyl)biphenyl-2-yl]methyl}-4,5-dihydroisoxazole], the IC50 worked out at 1290 nM.

On to `COc1ccc(CCC(=O)O)cc1-c1ccc(C(F)(F)F)cc1CC1=NO[C@H](c2cc(C(F)(F)F)cc(C(F)(F)F)c2)C1` [Example 5, 3-[2′-({(5S)-5-[3,5-bis(trifluoromethyl)phenyl]-4,5-dihydroisoxazol-3-yl}methyl)-6-methoxy-4′-(trifluoromethyl)biphenyl-3-yl]propanoic acid], for which the IC50 was 1500 nM.

Turning to `COc1ncc(-c2ccc(C(=O)O)cc2C)cc1-c1ccc(C(F)(F)F)cc1CC1=NO[C@H](c2cc(C(F)(F)F)cc(C(F)(F)F)c2)C1` [Example 6, 4-{5-[2-({(5S)-5-[3,5-bis(trifluoromethyl)phenyl]-4,5-dihydroisoxazol-3-yl}methyl)-4-(trifluoromethyl)phenyl]-6-methoxypyridin-3-yl}-3-methylbenzoic acid], the IC50 is 537 nM.

In the case of `COc1ncc(-c2ccc(C(=O)O)cc2C)cc1-c1cnc(C(F)(F)F)cc1CC1=NO[C@H](c2cc(C(F)(F)F)cc(C(F)(F)F)c2)C1` [Example 7, (S)-4-[4′-({5-[3,5-bis(trifluoromethyl)phenyl]-4,5-dihydroisoxazol-3-yl}methyl)-2-methoxy-6′-(trifluoromethyl)-3,3′-bipyridin-5-yl]-3-methylbenzoic acid], the IC50 was 4970 nM.

For the compound `COc1ccc(-c2ccc(C(=O)O)cc2C)cc1-c1cnc(C(F)(F)F)cc1CC1=NO[C@H](c2cc(C(F)(F)F)cc(C(F)(F)F)c2)C1` [Example 8, (S)-3′-[4-({5-[3,5-bis(trifluoromethyl)phenyl]-4,5-dihydroisoxazol-3-yl}methyl)-6-(trifluoromethyl)pyridin-3-yl]-4′-methoxy-2-methylbiphenyl-4-carboxylic acid], the IC50 turned out to be 1070 nM.

For the compound `COc1ncc(-c2ccc(C(=O)O)cc2C)cc1-c1ccc(C(F)(F)F)cc1CC1=NO[C@H](c2ccnc(C(F)(F)F)c2)C1` [Example 9, (S)-4-{6-methoxy-5-[4-(trifluoromethyl)-2-({5-[2-(trifluoromethyl)pyridin-4-yl]-4,5-dihydroisoxazol-3-yl}methyl)phenyl]pyridin-3-yl}-3-methylbenzoic acid], the IC50 came to 6500 nM.

On to `COc1ncc(-c2ccc(C(=O)O)cc2C)cc1-c1ccc(C(F)(F)F)nc1CC1=NO[C@H](c2cc(C(F)(F)F)cc(C(F)(F)F)c2)C1` [Example 10, (S)-4-[2′-({5-[3,5-bis(trifluoromethyl)phenyl]-4,5-dihydroisoxazol-3-yl}methyl)-2-methoxy-6′-(trifluoromethyl)-3,3′-bipyridin-5-yl]-3-methylbenzoic acid], for which the IC50 came to 400 nM.

With `COc1ccc(-c2cc(-c3ccc(C(=O)O)cc3C)ccc2OC)c(CC2=NO[C@H](c3cc(C(F)(F)F)cc(C(F)(F)F)c3)C2)n1` [Example 11, (S)-3′-[2-({5-[3,5-bis(trifluoromethyl)phenyl]-4,5-dihydroisoxazol-3-yl}methyl)-6-methoxypyridin-3-yl]-4′-methoxy-2-methylbiphenyl-4-carboxylic acid], the 50% inhibitory concentration (IC50) is 176 nM.

On to `COc1ccc(-c2cc(-c3ccc(C(=O)O)cc3C)cnc2OC)c(CC2=NO[C@H](c3cc(C(F)(F)F)cc(C(F)(F)F)c3)C2)n1` [Example 12, (S)-4-[2′-({5-[3,5-bis(trifluoromethyl)phenyl]-4,5-dihydroisoxazol-3-yl}methyl)-2,6′-dimethoxy-3,3′-bipyridin-5-yl]-3-methylbenzoic acid], for which the IC50 was determined as 880 nM.

As for `COc1ncc(-c2c(C)cc(C(=O)O)cc2C)cc1-c1ccc(C(F)(F)F)cc1CC1=NO[C@H](c2cc(C(F)(F)F)cc(C(F)(F)F)c2)[C@@H]1C` [Example 13, 4-(5-(2-(((4R,5S)-5-(3,5-bis(trifluoromethyl)phenyl)-4-methyl-4,5-dihydroisoxazol-3-yl)methyl)-4-(trifluoromethyl)phenyl)-6-methoxypyridin-3-yl)-3,5-dimethylbenzoic acid], the IC50 came out at 343 nM.

Staying with this test, now noted: read-out: IC50 RTA (95% HS).
Take `COc1cc(F)c(-c2ccc(C(=O)O)cc2C)cc1-c1ccc(C(F)(F)F)cc1CC1=NO[C@H](c2cc(C(F)(F)F)cc(C(F)(F)F)c2)C1` [Example 1A, (S)-2″-((5-(3,5-bis(trifluoromethyl)phenyl)-4,5-dihydroisoxazol-3-yl)methyl)-6′-fluoro-4′-methoxy-2-methyl-4″-(trifluoromethyl)-[1,1′:3′,1″-terphenyl]-4-carboxylic acid]: the IC50 was 37 nM.

As for `COc1cc(F)c(-c2ccc(C(=O)O)cc2C)cc1-c1ccc(C(F)(F)F)cc1CC1=NO[C@@H](c2cc(C(F)(F)F)cc(C(F)(F)F)c2)C1` [Example 1B, (R)-2″-((5-(3,5-bis(trifluoromethyl)phenyl)-4,5-dihydroisoxazol-3-yl)methyl)-6′-fluoro-4′-methoxy-2-methyl-4″-(trifluoromethyl)-[1,1′:3′,1″-terphenyl]-4-carboxylic acid], the IC50 stood at 1600 nM.

For `COc1cc(F)c(-c2ccc(-c3n[nH]c(=O)o3)cc2C)cc1-c1ccc(C(F)(F)F)cc1CC1=NO[C@H](c2cc(C(F)(F)F)cc(C(F)(F)F)c2)C1` [Example 2, (S)-5-(2″-((5-(3,5-bis(trifluoromethyl)phenyl)-4,5-dihydroisoxazol-3-yl)methyl)-6′-fluoro-4′-methoxy-2-methyl-4″-(trifluoromethyl)-[1,1′:3′,1″-terphenyl]-4-yl)-1,3,4-oxadiazol-2(3H)-one], the IC50 worked out at 167 nM.

Consider `COc1ccc(-c2ccc(C(=O)O)cc2C)cc1-c1ccc(C(F)(F)F)cc1CC1=NO[C@@H](c2cc(C(F)(F)F)cc(C(F)(F)F)c2)[C@H]1C` [Example 3A, 2″-(((4S,5R)-5-(3,5-bis(trifluoromethyl)phenyl)-4-methyl-4,5-dihydroisoxazol-3-yl)methyl)-4′-methoxy-2-methyl-4″-(trifluoromethyl)-[1,1′:3′,1″-terphenyl]-4-carboxylic acid], for which the IC50 was above 10000 nM.

With `COc1ccc(-c2ccc(C(=O)O)cc2C)cc1-c1ccc(C(F)(F)F)cc1CC1=NO[C@H](c2cc(C(F)(F)F)cc(C(F)(F)F)c2)[C@@H]1C` [Example 3B, 2″-(((4R,5S)-5-(3,5-bis(trifluoromethyl)phenyl)-4-methyl-4,5-dihydroisoxazol-3-yl)methyl)-4′-methoxy-2-methyl-4″-(trifluoromethyl)-[1,1′:3′,1″-terphenyl]-4-carboxylic acid], the IC50 amounted to 293 nM.
